Values quoted from earlier work in patent US20190282540A1, “TARGETED DRUG DELIVERY” (NOXOPHARM LIMITED, priority 2016, published 2019).

Legend:
[1] = [14C] idronoxil given orally, target dose 20 mg/kg
[2] = test system: wide range of cancer cell types; conditions: fold relative to genistein
[3] = in vivo, following dietary challenge

| Compound | levels of isotope in the brain and spinal cord [1] | conjugation (intravenously administered, second-pass liver metabolism) | conversion into water-soluble conjugates (orally administered, gut mucosa transferase activity and first-pass liver metabolism) | potency as an anti-cancer agent compared to genistein [2] | brain-to-blood ratio [3] |
| --- | --- | --- | --- | --- | --- |
| Oc1ccc(C2=Cc3ccc(O)cc3OC2)cc1 [Idronoxil, 2H-1-Benzopyran-7-0,1,3-(4-hydroxyphenyl)] | below the limit of reliable measurement | completely conjugated | completely converted into water-soluble conjugates | about 10 × | – |
| O=c1c(-c2ccc(O)cc2)coc2cc(O)cc(O)c12 [genistein] | – | – | – | – | 0.04 |
